Assay results taken from US9096605B2, “Pyrazolopyrimidine derivatives as PI3 kinase inhibitors” (GlaxoSmithKline LLC, priority 2011, dated 2015).

Tests used:
[1] = test system: pAKT(Ser473) in MDA-MB-468 cells; assay: pAKT(Ser473) assay in MDA-MB-468 cells; type: cell-based; conditions: Homo sapiens, 0.5 h, compound treatment 30 minutes, MSD ELISA phospho AKT(Ser473), given as ranges, read-out: Cell Activity—pAKT IC50 in MDA-MB-468
Protocol: pAKT(Ser473) Assay in MDA-MB-468 Cells
MDA-MB-468 cells were plated in 384-well flat clear bottom tissue culture plates (Corning #3701) at a density of 5000 cells per 0.057 cm2 in 48 ul of RPMI 1640 media supplemented with 10% fetal bovine serum (FBS). Cells were seeded with a Wellmate liquid handler (Matrix). Columns 1 through 23 were plated with cells and column 24 contained media alone. Cells were incubated at 37° C. with 5% CO2 for approximately 16-20 hours. Duplicate compound plates were prepared in 384-well polypropylene V-Bottom plates (Greiner #781280).
Compound titrations were made across the columns (A1-A20). 20 ul of compound was added to the first column and diluted into a 20 point curve with dimethylsulfoxide (DMSO, Thermo #TS2064) using a 2-fold dilution factor with a liquid handling robot (Hamilton). Columns 22 through 24 contained DMSO alone. Titrations were diluted 682-fold for compound treatment with 4 ul of compound added to 105 ul of RPMI media. Two ul of the diluted compound was added to the cell plates containing 48 ul of media using a multimek robot (Beckman Coulter). Final DMSO concentrations were 0.15%. Cells were treated with compound for 30 minutes at 37° C. with 5% CO2.
Following incubation, media was aspirated from dosed cell plates using an ELx405 plate washer (Bio-Tek) and 25 ul of 4° C. Meso Scale Discovery (MSD) lysis buffer with the addition of protease and phosphatase inhibitors (supplied in MSD kit #N31CB-1) was added to each well using a multidrop combi (Thermo). Precoated 4-spot per well MSD ELISA plates coated with total and phospho AKT(Ser473) antibody and BSA (supplied in kit) were blocked for 1 hour at room temperature with 35 ul per well of 1× MSD wash buffer+3% BSA (supplied in kit).
Blocked plates were washed 4 times with 100 ul per well of 1× Tris wash buffer (supplied in MSD kit) using an Elx405 plate washer (Bio-Tek). To each well, 20 ul of cell lysate was added using a multimek robot (Beckman Coulter) and the plate incubated at 4° C. overnight (˜12-24 hours). Following incubation, the ELISA plates were washed 4 times (100 ul/well) with 1× Tris wash buffer. Twenty microliters per well of 1× detection antibody (supplied in MSD kit) was added using a multidrop combi (Thermo), followed by a 2 hour incubation at room temperature. Detection antibody was aspirated and the plates washed 4 times (100 ul/well) with 1× Tris wash buffer. Read Buffer (supplied in MSD kit) was added at 1× (35 ul/well) at room temperature using a multidrop (Thermo). Relative luminescence units (RLU) were determined using a SECTOR™ Imager 6000 with MSD Workbench Software.
Concentration Response Curves for pAKT(Ser473):
For analysis of the pAKT(Ser473) concentration response curves, the data was normalized using Phospho AKT values divided by the sum of corresponding Total AKT and Phospho AKT values. The normalized values are plotted as the percent of the DMSO-treated control values on the corresponding plate. To determine IC50 values, the data is fit to a 4 parameter nonlinear sigmoidal dose response (variable slope) using GraphPad Prism version 4 for Windows, (GraphPad Software, San Diego Calif. USA). Criteria for curve fitting and IC50 determination include that the IC50 values from duplicate runs must be within 2 to 3-fold of each other, the Y min must be less than or equal to 30% of the DMSO-treated control and the Y max must range between 80-120%. Any data point equal to or greater than 40% of the curve was not utilized.

PI3K-beta = target: T1, PI3K-beta (Homo sapiens, UniProt P42338); assay: HTRF in vitro profiling assay for PI3K inhibition (beta isoform); type: biochemical; conditions: PI3K-beta enzyme pIC50 range, 200 pM enzyme, 100 uM ATP, 10 uM PIP2, 150 mM NaCl, corrected pIC50, read-out: PI3K-b Enz Activity
T1 construct: made in house
Text: HTRF In Vitro Profiling Assays for PI3K Inhibition
The PI3-Kinase profiling assays were developed to measure the compound-dependent inhibition of the alpha, beta, delta, and gamma isoforms of PI3K in an in vitro catalytic assay. This assay was developed and optimized from a kit produced by Upstate (Millipore catalog #33-017). Briefly, this procedure utilizes a pre-formed HTRF (Homogeneous Time-Resolved Fluorescence energy transfer) complex between four binding partners: 1) biotinylated PIP3, 2) GST tagged pleckstrin homology (PH) domain, 3) Europium labeled anti-GST monoclonal antibody, and 4) Streptavidin-Allophycocyanin (APC). The native PIP3 produced by PI 3-Kinase activity displaces biotin-PIP3 from the PH domain, resulting in the dissociation of the HTRF complex and a decrease in the fluorescence signal. The format of this assay is the same for all 4 isoforms of PI3K; the differences lie in the concentration of enzyme used to achieve the most robust signal. The alpha and delta assays are run at 400 pM enzyme; the beta assay is at 200 pM enzyme and the gamma assay is run at 1 nM enzyme. In addition, the alpha, beta and delta assays are run with 150 mM NaCl while the gamma assay is run in the absence of NaCl. The ATP concentration is 100 uM in the alpha, beta, and delta assays and 15 uM ATP in the gamma assay. All reactions are run at 10 uM PIP2
Compounds are serially diluted (3-fold in 100% DMSO) across a 384-well polypropylene mother plate from column 1 to column 12 and column 13 to column 24, to yield 11 concentrations for each test compound. Columns 6 and 18 contain only DMSO. Once titrations are made, […] is transferred to a 384-well low-volume assay plate (Greiner 784076). This assay plate contains three pharmacological controls (known PI3K inhibitors) and 3 assay controls: (1) Enzyme without inhibitor; (2) Buffer minus enzyme, and (3) Buffer minus enzyme plus native PIP3. DMSO is stamped into all wells of columns 6 and 18. PIP3 is added at 40 μM in 1× Reaction buffer (1 μL of 200 μM PIP3) to alternating rows of column 18 (wells 18 B, D, F, H, J, L, N, P). The no-enzyme control reactions are run in wells 18 A, C, E, G, I, K, M, O (0.1 μL of 100% DMSO).
The PI3-Kinase profiling assay was optimized using the HTRF kit provided by Upstate (Millipore). The assay kit contains seven reagents: 1) 4× Reaction Buffer; 2) native PIP2 (substrate); 3) Stop A (EDTA); 4) Stop B (Biotin-PIP3); 5) Detection Mix A (Streptavidin-APC); 6) Detection Mix B (Eu-labeled Anti-GST plus GST-tagged PH-domain); 7) Detection Mix C (KF). In addition, the following items were obtained or purchased: PI3Kinase (prepared by GSK BR&AD), dithiothreitol (Sigma, D-5545), Adenosine-5′-triphosphate (ATP, Teknova cat. # A0220), native PIP3 (1,2-dioctanoyl-sn-glycero-3-[phosphoinositil-3,4,5-triphosphate]tetraammonium salt (Avanti polar lipids, 850186P), DMSO (Sigma, 472301).
PI3Kinase Reaction Buffer is prepared by diluting the stock 1:4 with de-ionized water. Freshly prepared DTT is added at a final concentration of 5 mM on the day of use. Enzyme addition and compound pre-incubation are initiated by the addition of 2.5 μL of PI3K (at twice its final concentration) in 1× reaction buffer to all wells using a Multidrop Combi. Plates are incubated at room temperature for 15 minutes. Reactions are initiated by addition of 2.5 μL of 2× substrate solution (PIP2 and ATP in 1× reaction buffer) using a Multidrop Combi. Plates are incubated at room temperature for one hour. Reactions are quenched by the addition of 2.5 μL of stop solution (Stop A and Stop B pre-mixed at a ratio of 5:1, respectively) to all wells using the Multidrop Combi. […]

T1 sequence (P42338 whole entry, canonical isoform): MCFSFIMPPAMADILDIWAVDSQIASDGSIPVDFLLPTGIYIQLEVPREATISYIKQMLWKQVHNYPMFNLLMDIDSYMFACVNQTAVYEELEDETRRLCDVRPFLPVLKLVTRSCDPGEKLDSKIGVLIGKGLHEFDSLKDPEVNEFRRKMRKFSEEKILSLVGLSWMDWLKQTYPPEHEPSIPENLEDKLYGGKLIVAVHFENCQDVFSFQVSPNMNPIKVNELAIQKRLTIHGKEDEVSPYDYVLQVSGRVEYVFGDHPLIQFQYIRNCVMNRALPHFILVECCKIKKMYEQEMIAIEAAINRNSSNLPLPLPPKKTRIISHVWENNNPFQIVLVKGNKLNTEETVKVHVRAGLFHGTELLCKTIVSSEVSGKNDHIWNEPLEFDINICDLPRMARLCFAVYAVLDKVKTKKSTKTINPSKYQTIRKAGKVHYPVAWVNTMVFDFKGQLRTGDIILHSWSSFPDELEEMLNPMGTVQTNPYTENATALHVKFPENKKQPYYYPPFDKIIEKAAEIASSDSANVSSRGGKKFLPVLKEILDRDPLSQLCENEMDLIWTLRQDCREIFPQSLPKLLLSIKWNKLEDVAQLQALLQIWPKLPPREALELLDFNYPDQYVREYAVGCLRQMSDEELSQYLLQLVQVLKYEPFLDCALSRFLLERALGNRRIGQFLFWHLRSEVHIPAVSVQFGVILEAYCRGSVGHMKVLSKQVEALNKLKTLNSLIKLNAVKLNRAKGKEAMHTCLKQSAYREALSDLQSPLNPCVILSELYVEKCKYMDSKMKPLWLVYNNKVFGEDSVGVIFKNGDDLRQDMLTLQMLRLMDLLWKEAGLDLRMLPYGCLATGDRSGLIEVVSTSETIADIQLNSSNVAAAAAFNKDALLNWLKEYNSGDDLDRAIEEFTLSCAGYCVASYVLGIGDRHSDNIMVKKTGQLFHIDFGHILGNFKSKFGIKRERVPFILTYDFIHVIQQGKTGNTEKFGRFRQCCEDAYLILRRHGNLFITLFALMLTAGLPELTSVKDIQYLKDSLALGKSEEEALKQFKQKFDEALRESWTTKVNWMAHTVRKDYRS
T1 sequence (P27986 whole entry partner, canonical isoform): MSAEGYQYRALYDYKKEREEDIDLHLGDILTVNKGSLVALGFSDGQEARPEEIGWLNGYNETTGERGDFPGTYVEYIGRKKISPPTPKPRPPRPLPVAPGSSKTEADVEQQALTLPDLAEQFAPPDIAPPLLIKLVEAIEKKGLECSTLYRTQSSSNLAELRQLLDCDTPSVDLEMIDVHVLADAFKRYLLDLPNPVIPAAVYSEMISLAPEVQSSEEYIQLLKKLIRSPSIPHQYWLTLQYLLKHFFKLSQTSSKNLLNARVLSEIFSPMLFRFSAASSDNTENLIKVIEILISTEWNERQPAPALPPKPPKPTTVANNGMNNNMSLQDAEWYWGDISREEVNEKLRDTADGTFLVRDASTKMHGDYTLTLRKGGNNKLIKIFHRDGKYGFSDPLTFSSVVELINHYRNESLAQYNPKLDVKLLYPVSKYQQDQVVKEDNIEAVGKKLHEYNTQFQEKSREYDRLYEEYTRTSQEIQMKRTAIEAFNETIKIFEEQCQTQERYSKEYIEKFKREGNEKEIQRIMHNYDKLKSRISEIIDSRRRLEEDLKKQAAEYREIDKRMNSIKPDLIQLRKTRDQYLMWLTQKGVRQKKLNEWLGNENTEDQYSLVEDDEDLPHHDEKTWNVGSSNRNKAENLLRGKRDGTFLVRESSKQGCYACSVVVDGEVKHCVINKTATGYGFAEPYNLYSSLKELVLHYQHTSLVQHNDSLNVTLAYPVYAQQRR

Row | SMILES | IC50 [1] | IC50 (PI3K-beta)
1 | Cc1nn2c(O)cc(N3CCOCC3)nc2c1Cc1cccc(C(F)(F)F)c1C [Example 1, 2-methyl-3-(2-methyl-3-(trifluoromethyl)benzyl)-5-morpholinopyrazolo[1,5-a]pyrimidin-7-ol] | 1 to 5 µM | 0.126 to 1 nM
2 | Cc1nn2c(O)cc(N3CCOC(C)C3)nc2c1Cc1cccc(C(F)(F)F)c1C (stereo not drawn) [Example 2, 2-methyl-3-(2-methyl-3-(trifluoromethyl)benzyl)-5-(2-methylmorpholino)pyrazolo[1,5-a]pyrimidin-7-ol] | 1 to 5 µM | 1.26 to 10 nM
3 | Cc1nn2c(O)cc(N3CCOCC3=O)nc2c1Cc1cccc(C(F)(F)F)c1C [Example 3, 4-(7-hydroxy-2-methyl-3-(2-methyl-3-(trifluoromethyl)benzyl)pyrazolo[1,5-a]pyrimidin-5-yl)morpholin-3-one] | > 20 µM | 126 to 1260 nM
4 | Cc1nn2c(O)cc(C3CCOCC3)nc2c1Cc1cccc(C(F)(F)F)c1C [Example 4, 2-methyl-3-(2-methyl-3-(trifluoromethyl)benzyl)-5-(tetrahydro-2H-pyran-4-yl)pyrazolo[1,5-a]pyrimidin-7-ol] | 6 to 10 µM | 1.26 to 10 nM
5 | Cc1nn2ccc(C3CCOCC3)nc2c1Cc1cccc(C(F)(F)F)c1C [Example 5, 2-methyl-3-(2-methyl-3-(trifluoromethyl)benzyl)-5-(tetrahydro-2H-pyran-4-yl)pyrazolo[1,5-a]pyrimidine] | > 20 µM | 126 to 1260 nM
6 | Cc1nn2c(N)cc(-c3ccncc3)nc2c1Cc1cccc(C(F)(F)F)c1C [Example 6, 2-methyl-3-(2-methyl-3-(trifluoromethyl)benzyl)-5-(pyridin-4-yl)pyrazolo[1,5-a]pyrimidin-7-amine] | – | 12.6 to 100 nM
7 | Oc1cc(N2CCOCC2)nc2c(Cc3cccc(Cl)c3Cl)c(C(F)(F)F)nn12 [Example 7, 3-(2,3-dichlorobenzyl)-5-morpholino-2-(trifluoromethyl)pyrazolo[1,5-a]pyrimidin-7-ol] | 1 to 5 µM | 0.126 to 1 nM
8 | CC1CN(c2cc(O)n3nc(C(F)(F)F)c(Cc4cccc(Cl)c4Cl)c3n2)CCO1 (stereo not drawn) [Example 8, 3-(2,3-dichlorobenzyl)-5-(2-methylmorpholino)-2-(trifluoromethyl)pyrazolo[1,5-a]pyrimidin-7-ol] | 6 to 10 µM | 1.26 to 10 nM
9 | Oc1cc(C2CCOCC2)nc2c(Cc3cccc(Cl)c3Cl)c(C(F)(F)F)nn12 [Example 9, 3-(2,3-dichlorobenzyl)-5-(tetrahydro-2H-pyran-4-yl)-2-(trifluoromethyl)pyrazolo[1,5-a]pyrimidin-7-ol] | > 20 µM | 1.26 to 10 nM
10 | Cc1c(Cc2cnn3c(Cl)cc(N4CCOCC4)nc23)cccc1C(F)(F)F [Example 10, 4-(7-chloro-3-(2-methyl-3-(trifluoromethyl)benzyl)pyrazolo[1,5-a]pyrimidin-5-yl)morpholine] | – | 126 to 1260 nM

The next lines start with the values.

Row | IC50 [1] | IC50 (PI3K-beta) | SMILES
11 | 1 to 5 µM | 1.26 to 10 nM | Cc1c(Cc2cnn3c(O)cc(N4CCOCC4)nc23)cccc1C(F)(F)F [Example 11, 3-(2-methyl-3-(trifluoromethyl)benzyl)-5-morpholinopyrazolo[1,5-a]pyrimidin-7-ol]
12 | – | 126 to 1260 nM | COc1cc(N2CCOCC2)nc2c(Cc3cccc(C(F)(F)F)c3C)cnn12 [Example 12, 4-(7-methoxy-3-(2-methyl-3-(trifluoromethyl)benzyl)pyrazolo[1,5-a]pyrimidin-5-yl)morpholine]
13 | – | 126 to 1260 nM | CC(=O)Nc1cc(N2CCOCC2)nc2c(Cc3cccc(C(F)(F)F)c3C)c(C)nn12 [Example 18, N-[2-methyl-3-{[2-methyl-3-(trifluoromethyl)phenyl]methyl}-5-(4-morpholinyl)pyrazolo[1,5-a]pyrimidin-7-yl]acetamide]
14 | – | 126 to 1260 nM | Cc1nn2c(N3CCOCC3)cc(N3CCOCC3)nc2c1Cc1cccc2ccccc12 [Example 28, 4,4′-(2-methyl-3-(naphthalen-1-ylmethyl)pyrazolo[1,5-a]pyrimidine-5,7-diyl)dimorpholine]
15 | – | 126 to 1260 nM | COc1cc(-c2ccncc2)nc2c(Cc3cccc(Cl)c3Cl)c(C)nn12 [Example 34, 3-(2,3-dichlorobenzyl)-7-methoxy-2-methyl-5-(pyridin-4-yl)pyrazolo[1,5-a]pyrimidine]
16 | – | 126 to 1260 nM | Cc1nn2c(-n3ccnc3)cc(N3CCOCC3)nc2c1Cc1cccc2ccccc12 [Example 44, 4-(7-(1H-imidazol-1-yl)-2-methyl-3-(naphthalen-1-ylmethyl)pyrazolo[1,5-a]pyrimidin-5-yl)morpholine]
17 | – | 126 to 1260 nM | Cc1ccccc1Cc1c(C)nn2c(-c3cn[nH]c3)cc(-c3ccncc3)nc12 [Example 49, 2-methyl-3-(2-methylbenzyl)-7-(1H-pyrazol-4-yl)-5-(pyridin-4-yl)pyrazolo[1,5-a]pyrimidine]
18 | – | 126 to 1260 nM | Cc1ccccc1Cc1c(C)n(C)n2c(=O)cc(-c3ccncc3)nc12 [Example 51, 1,2-dimethyl-3-(2-methylbenzyl)-5-(pyridin-4-yl)pyrazolo[1,5-a]pyrimidin-7(1H)-one]
